This is an account of results in US11679097B2, “Combination product containing limonoid compound and biguanide compound” (ZHEJIANG YANGSHENGTANG INSTITUTE OF NATURAL MEDICATION CO., …, priority 2017, dated 2023).

Type in all cases: in vivo
Assay [1] concerns STZ mice. Put plainly: Blood glucose in mouse pancreatic islet β-cell injury model (Example 3). The note with it: STZ ICR mice; single administration 0.1 g/kg per day by gavage, two weeks; 1 h after last administration. The text has this:
Effects of a Limonoid Compound, Metformin or a Combination Thereof on Blood Glucose in a Mouse Pancreatic Islet β-Cell Injury Model In this example, a mouse pancreatic islet β-cell injury model was established by modeling ICR mice with streptozotocin (STZ) (referred to the prior art literature: Li Nan et al., Protective effect of pine pollen on kidney damage in diabetic nephropathy mice, Science and Technology Review, 2014, 32 (4/5): 95-99), and used to complete the evaluation of hypoglycemic effect in animals (this model could simulate pancreatic islet β-cell damage state of type I and type II diabetics). […] Conditions of experimental feeding: ICR mice (20±2 g), aged 6 weeks, purchased from Zhejiang Academy of Medical Sciences, and subjected to experimental feeding after 7 days of preliminary feeding. […] The experimental feed was mouse growth-stable feed (GB […]), and the daily feeding and management of the animals were under the responsibility of the animal security department, which provided the animals with sufficient padding and fresh drinking water daily. Experimental grouping: 15 male mice were randomly selected as the normal control group. […] Gavage doses: the gavage dose was 0.1 g/kg per day for the […] group, the gavage dose was 0.1 g/kg per day for the […] group, the gavage dose was 0.1 g/kg per day for the […]-glucopyranoside group, the gavage dose of metformin was 0.1 g/kg per day for the metformin group, […] dose of 0.05 g/kg and metformin at a dose of 0.05 g/kg were simultaneously gavaged per day for the […]/metformin combination group, […] dose of 0.05 g/kg and metformin at a dose of 0.05 g/kg were simultaneously gavaged per day for the […]/metformin combination group, […]-glucopyranoside at a dose of 0.05 g/kg and metformin at a dose of 0.05 g/kg were simultaneously gavaged per day for the […]-glucopyranoside/metformin combination group, the gavage volume was 10 mL/kg, and the normal group and the model group were administrated with 10 mL/kg of distilled water. […] SPSS 16.0 software was used for statistical analysis. The data were expressed as mean and standard deviation. The data before and after were analyzed by t-test, and P<0.05 was considered statistically significant.

The test system of another assay is db/db mice. Put plainly: Blood glucose and insulin in mouse model of type II diabetes (Example 4). The note with it: single administration 0.2 g/kg per day by gavage, two weeks. The text has this: Effects of a Limonoid Compound, Metformin or a Combination Thereof on Blood Glucose and Insulin in a Mouse Model of Type II Diabetes
In the present embodiment, the limonoid compound selected nomilin, deacetylnomilin, nomilin acid, deactylnomilin 17-β-D-glucopyranoside, and a nomilin single administration group, deacetylnomilin single administration group, nomilin acid single administered group, deactylnomilin 17-β-D-glucopyranoside single administration group, and combination thereof with metformin administration groups were set, respectively.
Conditions for experimental feeding: as type II diabetes model mice, 6-week-old SPF-grade db/db mice were purchased from the Nanjing Model Biology Institute, and subjected to experimental feeding after 7 days of preliminary feeding. It should be noted that the conditions for raising the mice were as follows: the temperature was 23±1° C., the humidity was 55±10%, the lights were turned on between 7 am and 7 pm (the lights were turned off at other time), and the mice were allowed to access to water and feed freely. The experimental feed was mouse growth-stable feed (GB M2118), and the daily feeding and management of the animals were under the responsibility of the animal security department, which provided the animals with sufficient padding and fresh drinking water daily.
Experimental grouping: male db/db mice (20±2 g) were selected, 18 male mice in each group were tested, and drinking bottles were sterilized weekly. The experimental groups included the normal control group (db/m, n=18), the model group (db/db, n=18), the nomilin group (db/db, n=18), the deacetylnomilin group (db/db, n=18), the nomilin acid group (db/db, n=18), the deactylnomilin 17-β-D-glucopyranoside group (db/db, n=18), the metformin group (db/db, n=18), the nomilin/metformin combination group (db/db, n=18), the deacetylnomilin/metformin combination group (db/db, n=18), the nomilin acid/metformin combination group (db/db, n=18), the deactylnomilin 17-β-D-glucopyranoside/combination group (db/db, n=18).
Gavage doses: nomilin at a dose of 0.2 g/kg was gavaged per day for the nomilin group, deacetylnomilin at a dose of 0.2 g/kg was gavaged per day for the deacetylnomilin group, nomilin acid at a dose of 0.2 g/kg was gavaged per day for the nomilin acid group, deacetylnomilin […] at a dose of 0.2 g/kg was gavaged per day for the deactylnomilin glucopyranoside group, metformin at a dose of 0.2 g/kg was gavaged per day for the metformin group, nomilin at a dose of 0.1 g/kg and metformin at a dose of 0.1 g/kg were simultaneously gavaged per day for the nomilin/metformin combination group, nomilin acid at a dose of 0.1 g/kg and metformin at a dose of 0.1 g/kg were simultaneously gavaged per day for the nomilin acid/metformin combination group, deacetylnomilin at a dose of 0.1 g/kg and metformin at a dose of 0.1 g/kg were simultaneously gavaged per day for the deacetylnomilin/metformin combination group, deactylnomilin 17-β-D-glucopyranoside at a dose of 0.1 g/kg and metformin at a dose of 0.1 g/kg were simultaneously gavaged per day for the deactylnomilin 17-β-D-glucopyranoside/metformin combination group, the gavage volume was 10 mL/kg, and the normal group and the model group were administrated with 10 mL/kg of distilled water. Two weeks later, the blood glucose values were measured by tail trimming method (Johnson's blood glucose meter) 1 h after the last administration, and serum insulin levels were measured with blood collected from orbital cavity by enzyme-linked immunosorbent assay (Elisa), and the average of each group was obtained. SPSS 16.0 software was used for statistical analysis. The data were expressed as mean and standard deviation. The data before and after were analyzed by t-test, and P<0.05 was considered statistically significant.

The test system of assay [2] is STZ mice. Put plainly: Blood glucose in mouse model of type II diabetes with pancreatic islet damage and obesity (Example 5). Particulars: high-fat diet + STZ ICR mice; single administration 0.5 g/kg per day by gavage, three weeks. Here is the method:
It should be noted that the conditions for raising the mice were as follows: the temperature was 23±1° C., the humidity was 55±10%, the lights were turned on between 7 am and 7 pm (the lights were turned off at other time), and the mice were allowed to access to water and feed freely. The experimental feed was mouse growth-stable feed (GB M2118), and the daily feeding and management of the animals were under the responsibility of the animal security department, which provided the animals with sufficient padding and fresh drinking water daily.
SPSS 16.0 software was used for statistical analysis.

As to `CC1(C)O[C@](C)(O)[C@]2(C)[C@H]3CC[C@@]4(C)[C@H](c5ccoc5)OC(=O)[C@H]5O[C@]54[C@]3(C)C(=O)C[C@@H]12` [Ichangensin, ichangensin], in the assay with STZ mice [1], the Blood glucose value was 14.5 ± 3.5 mmol/L.

`CC(C)(O)[C@@H]1CC(=O)[C@]2(C)[C@H](CC[C@@]3(C)[C@H](c4ccoc4)OC(=O)[C@H]4O[C@]432)[C@]12COC(=O)C[C@@H]2O` [Ichangin, ichangin]: in the assay on STZ mice [1], the Blood glucose value was determined as 14.8 ± 1.9 mmol/L.

Take deactylnomilin 17-β-D-glucopyranoside: the Insulin in the assay with db/db mice (serum, Elisa) worked out at 8.40 ± 3.27 pg/mL. Also, the Blood glucose value is given as 12.8 ± 5.5 mmol/L in the assay on db/db mice (1 h after last administration) and 12.7 ± 2.5 mmol/L in the assay with STZ mice [2].

Turning to ichangin 17-β-D-glucopyranoside, in the assay with STZ mice [1], the Blood glucose value is given as 14.9 ± 2.1 mmol/L.

As for nomilin 17-β-D-glucopyranoside, in the assay with STZ mice [2], the Blood glucose value came out at 12.8 ± 2.9 mmol/L.

With nomilinic acid 17-β-D-glucopyranoside, the Blood glucose value with STZ mice [2] is given as 13.5 ± 2.4 mmol/L.
